From US10328033B2, “Methods and biocompatible compositions to achieve sustained drug release in the eye” (Integral Biosystems LLC, priority 2014, dated 2019)

Assay: Photo-oxidation stress by high intensity UV light
Assay type: physicochemical
Conditions: UV 254 nm, 24 hours, in buffer alone
Description: Nanomesh wafers (ML-ES-06-31) were tested for photo-oxidative degradation by high intensity UV light (254 nm, for 24 hours). […] In contrast, 50% of the travoprost in buffer alone was degraded under these conditions.

travoprost degraded: 50%
SMILES: CC(C)OC(=O)CCC/C=C\C[C@@H]1[C@@H](/C=C/[C@@H](O)COc2cccc(C(F)(F)F)c2)[C@H](O)C[C@@H]1O [travoprost]
